These results are taken from PubChem BioAssay (NCI).

Molecules are shown by their SMILES.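 Protocol summary: plate cells (96-well), add compound at 5 concentrations, incubate 48 h, interpolate endpoints linearly. The concentration for full growth arrest is given as TGI.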

Test systems include UACC-257 melanoma; NCI-H460 lung; SR leukemia; UO-31 renal; ACHN renal; SNB-75 CNS; OVCAR-3 ovarian; SK-MEL-2 melanoma; IGROV1 ovarian; COLO 205 colon; SW-620 colon; SF-268 CNS; CAKI-1 renal; MDA-MB-435; MCF7 breast; SK-MEL-28 melanoma; NCI-H226 lung; PC-3 prostate.
What all share (test): NCI-60 cell line screen, 48 h

As to `CC(C)C(=O)/C=C/c1ccc(Cl)cc1`, the TGI in the assay with UACC-257 melanoma was 40.6 µM; in the assay on NCI-H460 lung, 42.3 µM; in the assay with SR leukemia it was 26.2 µM; in the assay with UO-31 renal, 24.5 µM; in the assay with ACHN renal, 28.5 µM; with SNB-75 CNS it was 33.4 µM. The TGI in the assay on OVCAR-3 ovarian was 28 µM; in the assay with SK-MEL-2 melanoma it was 35.4 µM; with IGROV1 ovarian, 46.3 µM; in the assay on COLO 205 colon, 59.9 µM; with SW-620 colon it was 16.3 µM; in the assay with SF-268 CNS it was 67.5 µM.

With `COc1ccc(N[C@H](CS(=O)c2ccc(C)cc2)C(F)(F)C(F)(F)F)cc1` (stereo partly drawn), the TGI with UACC-257 melanoma was more than 100 µM; in the assay on NCI-H460 lung, more than 100 µM; with UO-31 renal, more than 100 µM; in the assay with ACHN renal, more than 100 µM; in the assay on SNB-75 CNS it was 75.6 µM; in the assay on CAKI-1 renal, more than 100 µM. Besides, the TGI with MDA-MB-435, in the assay on OVCAR-3 ovarian, in the assay with IGROV1 ovarian, with MCF7 breast, with COLO 205 colon and in the assay on SK-MEL-28 melanoma was more than 100 µM throughout. The TGI in the assay with NCI-H226 lung, with SW-620 colon and in the assay on SF-268 CNS was more than 100 µM each time.

For `CC(C)[Si](OC1=C(C(=O)N(C)c2ccccc2Cl)CCC1)(C(C)C)C(C)C`, the TGI in the assay with UACC-257 melanoma stood at 43.4 µM; with NCI-H460 lung, 62.1 µM; with UO-31 renal, 29.4 µM; in the assay on ACHN renal, 36.3 µM; with SNB-75 CNS, 29.1 µM; in the assay with CAKI-1 renal it was 36.5 µM. In addition, the TGI came to 42.7 µM in the assay on MDA-MB-435; 31.2 µM in the assay with OVCAR-3 ovarian; 33 µM with IGROV1 ovarian; 34.3 µM in the assay on COLO 205 colon; 39.7 µM in the assay with SK-MEL-28 melanoma; 40.3 µM in the assay on NCI-H226 lung. Besides, the TGI with SW-620 colon turned out to be 46.9 µM; in the assay on SF-268 CNS, 33.4 µM.

For the compound `CN(C)CC(CO)(CN(C)C)CN(C)C`, the TGI with UACC-257 melanoma, in the assay with NCI-H460 lung, with SR leukemia, in the assay with PC-3 prostate, in the assay with UO-31 renal and in the assay with ACHN renal was more than 100 µM throughout. For the same compound, the TGI in the assay with SNB-75 CNS, in the assay on CAKI-1 renal, in the assay on OVCAR-3 ovarian, in the assay with IGROV1 ovarian, with MCF7 breast and in the assay with COLO 205 colon was more than 100 µM each time. In addition, the TGI with SK-MEL-28 melanoma, in the assay with NCI-H226 lung, in the assay with SW-620 colon and with SF-268 CNS was more than 100 µM each time.

`O=P1(Oc2ccc(Cl)cc2)OCCS1` (stereo not drawn): the TGI in the assay with UACC-257 melanoma, in the assay with NCI-H460 lung, in the assay with SR leukemia, in the assay on PC-3 prostate, with UO-31 renal and in the assay with ACHN renal was more than 100 µM each time. Moreover, the TGI with SNB-75 CNS, in the assay on SK-MEL-2 melanoma, in the assay with IGROV1 ovarian, in the assay on COLO 205 colon, in the assay on SK-MEL-28 melanoma and in the assay with NCI-H226 lung was more than 100 µM each time. Besides, the TGI in the assay with SW-620 colon and in the assay on SF-268 CNS was more than 100 µM throughout.

With `COC(=O)N/N=C/c1oc(-c2ccccc2)c(-c2ccccc2)c1[N+](=O)[O-]`, the TGI in the assay on UACC-257 melanoma, in the assay with NCI-H460 lung, with SR leukemia, in the assay with UO-31 renal, in the assay with ACHN renal and with SNB-75 CNS was more than 100 µM each time. The TGI in the assay with CAKI-1 renal, in the assay with OVCAR-3 ovarian, in the assay on IGROV1 ovarian, with COLO 205 colon, with SK-MEL-28 melanoma and in the assay on NCI-H226 lung was more than 100 µM each time. Further, the TGI in the assay on SW-620 colon and in the assay on SF-268 CNS was more than 100 µM throughout.

For `CC1(C)C2CCC3(OCCO3)C1C1OC12` (stereo not drawn), the TGI in the assay on UACC-257 melanoma, in the assay on NCI-H460 lung, in the assay on UO-31 renal, with ACHN renal, in the assay with SNB-75 CNS and in the assay with CAKI-1 renal was more than 100 µM in each case. For the same compound, the TGI in the assay on OVCAR-3 ovarian, with SK-MEL-2 melanoma, in the assay with COLO 205 colon, with SK-MEL-28 melanoma, in the assay on NCI-H226 lung and in the assay on SW-620 colon was more than 100 µM in each case. In the assay with SF-268 CNS, the TGI is more than 100 µM.

On to `Cc1ccc2[nH]c3[nH]c(=O)[nH]c(=O)c3c2c1`, for which the TGI in the assay on UACC-257 melanoma, with UO-31 renal, in the assay on ACHN renal, in the assay with SNB-75 CNS, in the assay with CAKI-1 renal and in the assay with MDA-MB-435 was more than 100 µM each time. Besides, the TGI in the assay on OVCAR-3 ovarian, in the assay on SK-MEL-2 melanoma, in the assay with IGROV1 ovarian, in the assay with MCF7 breast, in the assay with COLO 205 colon and in the assay on NCI-H226 lung was more than 100 µM each time. The TGI in the assay with SW-620 colon and in the assay on SF-268 CNS was more than 100 µM each time.

`COc1ccc([N-]/C(=N\n2c(=O)c(C)nn(C)c2=S)N(c2ccc(OC)cc2)c2nn3c(=O)c(C)n[n+](C)c3s2)cc1`: the TGI in the assay with UACC-257 melanoma, with NCI-H460 lung, in the assay on SR leukemia, in the assay on ACHN renal, in the assay with SNB-75 CNS and in the assay on IGROV1 ovarian was more than 100 µM throughout. Further, the TGI in the assay on COLO 205 colon, in the assay with SK-MEL-28 melanoma, in the assay with NCI-H226 lung, in the assay on SW-620 colon and with SF-268 CNS was more than 100 µM each time.
